Results on 11 compounds are retold here after patent EP2915814A2, “Crystalline salts of sitagliptin” (priority 2008, dated 2010).

Data set [1] is described as follows: Dissolution of salts (done on 1 capsule each). The class given is physicochemical. Particulars: for Dissolution in capsule in acetate buffer pH 4.5 medium at 50 rpm at 10 min (% release as free base) / Dissolution in capsule in acetate buffer pH 4.5 medium at 50 rpm at 30 min (% release as free base): acetate buffer pH 4.5, 50 rpm; for Dissolution in capsule in phosphate buffer pH 7.4 medium at 50 rpm at 10 min (% release as free base) / Dissolution in capsule in phosphate buffer pH 7.4 medium at 50 rpm at 30 min (% release as free base): phosphate buffer pH 7.4, 50 rpm. From the text:
Table 28: Dissolution results of salts (Done on 1 capsule each)

Data set [2] is described as follows: Hygroscopicity studies (water content after storage at 43 %, 75 % and 93 % relative humidity). Format: physicochemical. Particulars: for change during the hygroscopicity studies: 43 %, 75 % and 93 % relative humidity, confirmed by DSC of samples kept at 93 % relative humidity for 2 weeks; for Initial water content: initial sample; for Hygroscopicity 2 weeks 43 % rh: 2 weeks at 43 % rh; for Hygroscopicity 2 weeks 43 % rh / Hygroscopicity 2 weeks 75 % rh / Hygroscopicity 2 weeks 93 % rh: % Equilibrium moisture content, ss = semi solid state of sample, β = solid first changed into liquid and solidified again; for Hygroscopicity 2 weeks 75 % rh: 2 weeks at 75 % rh; for Hygroscopicity 2 weeks 93 % rh: 2 weeks at 93 % rh. In general terms: In DSC, transitions show as peaks or steps in heat flow.
Excerpt: The salts of the present invention and the free base were studied under three different humidity conditions (43 % relative humidity, 75 % relative humidity, and 93 % relative humidity).

A short description of data set [3]: Solubility in water / aqueous solution. The class given is physicochemical. Particulars: compared to other known salts of sitagliptin.
Data set [4] is described as follows: Stability studies (storage at 60 °C in closed bottles or at 40 °C / 75 % RH in an open bottle; related substances by HPLC). Conditions: for Initial Related Substances: before storage; for Related Substances 2 W 40°C/75 % RH open / Related Substances 2 W 60°C closed: 2 weeks, 20160 min; for Related Substances 4 w 40°C/75 % RH closed / Related Substances 4 w 40°C/75 % RH open / Related Substances 4 w 60°C Closed bottle: 4 weeks, 40320 min; for Related Substances 12 weeks 40°C/75 % RH closed bottle / Related Substances 12 weeks 40°C/75 % RH open bottle: 120960 min.

For data set [5] the following is noted: solid; for Related Substances 4 w 40°C/75 % RH closed / Related Substances 4 w 40°C/75 % RH open / Related Substances 4 w 60°C Closed bottle: 672 h; for Related Substances 12 weeks 40°C/75 % RH closed bottle / Related Substances 12 weeks 40°C/75 % RH open bottle: 2016 h; for Related Substances 2 W 40°C/75 % RH open / Related Substances 2 W 60°C closed: 336 h; for Related Substances 2 W 60°C closed / Related Substances 4 w 60°C Closed bottle: closed bottle.

Another data set can be described thus: pH of aqueous solution. The class given is physicochemical. Conditions: 2 % aqueous solution.
Data set [6] is described as follows: Evaluation of sitagliptin salts for processability. Conditions: for Appearance: powder. From the text: Table 29: Evaluation of different Sitagliptin salts for processability

Where a name gives a salt, the structure may show the parent alone. Read-outs that look alike come from different tables or passages of the source. Marks after values point to notes of the source that are not given here.

As for `N[C@@H](CC(=O)N1CCn2c(nnc2C(F)(F)F)C1)Cc1cc(F)c(F)cc1F` [HCl II], in data set [1], the “Dissolution in capsule in acetate buffer pH 4.5 medium at 50 rpm at 10 min (% release as free base)” value worked out at 93.89%, the “Dissolution in capsule in acetate buffer pH 4.5 medium at 50 rpm at 30 min (% release as free base)” value is reported as 100%, the “Dissolution in capsule in pH 6.8 buffer at 50 rpm at 10 min (% release as free base)” value is given as 90.13% and the “Dissolution in capsule in pH 6.8 buffer at 50 rpm at 30 min (% Release as free base)” value is 91.21%. In data set [1], the “Dissolution in capsule in phosphate buffer pH 7.4 medium at 50 rpm at 10 min (% release as free base)” value is recorded as 93.63% and the “Dissolution in capsule in phosphate buffer pH 7.4 medium at 50 rpm at 30 min (% release as free base)” value is recorded as 99.67%.

Regarding “Amorphous Sitagliptin Citrate [citrate (amorphous)]”, in data set [2] (two weeks storage at 93% relative humidity), the “solid form conversion on humidity storage” value is listed as “partial conversion into the respective crystalline form”. Further, in data set [1], the “Dissolution in capsule in pH 6.8 buffer at 50 rpm at 10 min (% release as free base)” value came to 62.4%, the “Dissolution in capsule in pH 6.8 buffer at 50 rpm at 30 min (% Release as free base)” value is 89.47%, the “Dissolution in capsule in water medium at 50 rpm at 10 min (% release as free base)” value was determined as 75.89% and the “Dissolution in capsule in water medium at 50 rpm at 30 min (% release as free base)” value is recorded as 94.23%.

As to `N[C@@H](CC(=O)N1CCn2c(nnc2C(F)(F)F)C1)Cc1cc(F)c(F)cc1F` [sulfate (non solvated), Sitagliptin Sulfate Form II], in data set [2] (listed as sitagliptin sulfate (non solvated)), the “change during the hygroscopicity studies” value is reported as “increase in water content corresponding to conversion of hemihydrate to dihydrate”. Further, the solubility in water result in data set [3] was “very high solubility in water”. Besides, the “stability (degradation, related substances by HPLC)” value (from here on “stability”) is reported as “excellent stability” in data set [4] (closed bottle, four weeks at 60 °C, listed as sitagliptin hemisulphate) and “stable” in data set [4] (closed bottle, two weeks at 60 °C).

With `N[C@@H](CC(=O)N1CCn2c(nnc2C(F)(F)F)C1)Cc1cc(F)c(F)cc1F` [Phosphate H2O Ref], in data set [1], the “Dissolution in capsule in acetate buffer pH 4.5 medium at 50 rpm at 10 min (% release as free base)” value is 48.08%, the “Dissolution in capsule in acetate buffer pH 4.5 medium at 50 rpm at 30 min (% release as free base)” value was found to be 98.48%, the “Dissolution in capsule in pH 6.8 buffer at 50 rpm at 10 min (% release as free base)” value came to 86.65% and the “Dissolution in capsule in pH 6.8 buffer at 50 rpm at 30 min (% Release as free base)” value is 91.12%. In data set [1], the “Dissolution in capsule in phosphate buffer pH 7.4 medium at 50 rpm at 10 min (% release as free base)” value turned out to be 80.81%, the “Dissolution in capsule in phosphate buffer pH 7.4 medium at 50 rpm at 30 min (% release as free base)” value amounted to 99.18%, the “Dissolution in capsule in water medium at 50 rpm at 10 min (% release as free base)” value amounted to 46.63% and the “Dissolution in capsule in water medium at 50 rpm at 30 min (% release as free base)” value came out at 96.30%.

Take “Sitagliptin succinate Form I [F: Succinate I]”: in data set [2] (2 weeks 43 % rh), the “Hygroscopicity (water content)” value is on record as 1.36%. Besides, the “Hygroscopicity (water content)” value in data set [2] (2 weeks 75 % rh) is 1.78%. Also, the “Hygroscopicity (water content)” value in data set [2] (2 weeks 93 % rh) is recorded as 19.58** %. Further, the Initial water content in data set [2] (before humidity storage) came to 0.90%. Moreover, in data set [5], the “Related Substances 4 w 40°C/75 % RH closed” value worked out at 0.29%, the “Related Substances 12 weeks 40°C/75 % RH closed bottle” value is 0.23%, the “Related Substances 2 W 40°C/75 % RH open” value stood at 0.13% and the “Related Substances 4 w 40°C/75 % RH open” value was determined as 0.25%. In data set [5], the “Related Substances 12 weeks 40°C/75 % RH open bottle” value was 0.16%, the “Related Substances 2 W 60°C closed” value amounted to 0.30% and the “Related Substances 4 w 60°C Closed bottle” value is reported as 0.58%. Further, in data set [4], the “Initial Related Substances” value worked out at 0.14%.

On to `N[C@@H](CC(=O)N1CCn2c(nnc2C(F)(F)F)C1)Cc1cc(F)c(F)cc1F` [sitagliptin hydrochloride, Sitagliptin Hydrochloride Form II], for which the hygroscopicity result in data set [2] (prolonged storage at 93 % relative humidity) is on record as “not hygroscopic”. The pH in “pH of aqueous solution” is on record as 5.8 ± 0.1. Moreover, in data set [4] (closed bottle, four weeks at 60 °C), the “stability” value was “excellent stability”.

Turning to `N[C@@H](CC(=O)N1CCn2c(nnc2C(F)(F)F)C1)Cc1cc(F)c(F)cc1F` [M: Phosphate], in data set [2], the “Hygroscopicity 2 weeks 43 % rh” value is recorded as 3.69%, the “Hygroscopicity 2 weeks 75 % rh” value stood at 3.67% and the “Hygroscopicity 2 weeks 93 % rh” value came to 3.73%. Further, the Initial water content in data set [2] (before storage) was 3.59%. Further, in data set [6], the Flowability entry is “Good”; the “Poured density, m/V0” value turned out to be 0.52 g/ml; the Sticking tendency entry is given as “None”; the “Tapped density, m/V1250” value was 0.57 g/mL. Further, in data set [6], the “Apparent Volume V0” value was 190 mL, the “Apparent Volume V10” value came out at 185 mL, the “Apparent Volume V500” value is 175 mL and the “Apparent Volume V1250” value was 174 mL. The Appearance result in data set [6] is “White to off-white powder, fine powder, few agglomerates”.

With `N[C@@H](CC(=O)N1CCn2c(nnc2C(F)(F)F)C1)Cc1cc(F)c(F)cc1F` [B: HCl I, Sitagliptin Hydrochloride Form I], in data set [2] (2 weeks 43 % rh), the “Hygroscopicity (water content)” value was determined as 3.86%. Further, in data set [2] (2 weeks 75 % rh), the “Hygroscopicity (water content)” value is 4.36%. In addition, the “Hygroscopicity (water content)” value in data set [2] (2 weeks 93 % rh) was 4.49%. Moreover, the Initial water content in data set [2] (before humidity storage) came to 1.4%. In data set [4], the “Related Substances 2 W 40°C/75 % RH open” value came out at 0.05%, the “Related Substances 2 W 60°C closed” value worked out at 0.01%, the “Related Substances 4 w 40°C/75 % RH closed” value is 0.01% and the “Related Substances 4 w 40°C/75 % RH open” value was found to be 0.01%. Moreover, the “Initial Related Substances” value in data set [4] is recorded as 0.04%. In data set [4] (closed bottle), the “Related Substances 4 w 60°C Closed bottle” value worked out at 0.01% and the “Related Substances 12 weeks 40°C/75 % RH closed bottle” value was 0.14%. Further, in data set [4] (open bottle), the “Related Substances 12 weeks 40°C/75 % RH open bottle” value turned out to be 0.15%. Besides, the “stability” value in data set [4] (closed bottle, four weeks at 60 °C, listed as HCl form I) was “stable”. In data set [4] (closed bottle, two weeks at 60 °C, listed as HCl form I), the “stability” value is recorded as “stable”. Also, the “stability” value in data set [4] (open bottle, twelve weeks at 40 °C and 75 % RH, listed as HCl form I) was “stable”.

For “Sitagliptin Fumarate Form I [D:Fumarate I]”, the “Hygroscopicity (water content)” value in data set [2] (2 weeks 43 % rh) worked out at 1.058%. In addition, the “Hygroscopicity (water content)” value in data set [2] (2 weeks 75 % rh) was 1.078%. For the same compound, the “Hygroscopicity (water content)” value in data set [2] (2 weeks 93 % rh) amounted to 1.168%. The “change during the hygroscopicity studies” value in data set [2] is “did not show much change”. The compound further gave an Initial water content in data set [2] (before humidity storage) of 0.89%. Besides, in data set [5], the “Related Substances 4 w 40°C/75 % RH closed” value amounted to 0.07%, the “Related Substances 12 weeks 40°C/75 % RH closed bottle” value is recorded as 0.13%, the “Related Substances 2 W 40°C/75 % RH open” value was 0.01% and the “Related Substances 4 w 40°C/75 % RH open” value was found to be 0.06%. In data set [5], the “Related Substances 12 weeks 40°C/75 % RH open bottle” value was 0.11%, the “Related Substances 2 W 60°C closed” value was 0.01% and the “Related Substances 4 w 60°C Closed bottle” value is 0.03%. Also, the “Initial Related Substances” value in data set [4] was 0%.

Take Sitagliptin Malate: the “change during the hygroscopicity studies” value in data set [2] is “did not show much change”. For the same compound, in data set [1], the “Dissolution in capsule in pH 6.8 buffer at 50 rpm at 10 min (% release as free base)” value is 84.72%, the “Dissolution in capsule in pH 6.8 buffer at 50 rpm at 30 min (% Release as free base)” value was found to be 90.94%, the “Dissolution in capsule in water medium at 50 rpm at 10 min (% release as free base)” value came out at 90.22% and the “Dissolution in capsule in water medium at 50 rpm at 30 min (% release as free base)” value turned out to be 98.89%.

As for `N[C@@H](CC(=O)N1CCn2c(nnc2C(F)(F)F)C1)Cc1cc(F)c(F)cc1F` [O: Sulfate II], in data set [2], the “Hygroscopicity 2 weeks 43 % rh” value is on record as 2.59%, the “Hygroscopicity 2 weeks 75 % rh” value came to 7.1% and the “Hygroscopicity 2 weeks 93 % rh” value is recorded as 7.33%. For the same compound, the Initial water content in data set [2] (before storage) amounted to 1.88%. In data set [6], the Flowability entry is on record as “Good”; the “Poured density, m/V0” value was found to be 0.483 g/ml; the Sticking tendency result is “Very low”; the “Tapped density, m/V1250” value was found to be 0.508 g/mL. Besides, in data set [6], the “Apparent Volume V0” value is 40 mL, the “Apparent Volume V10” value stood at 40 mL, the “Apparent Volume V500” value amounted to 38 mL and the “Apparent Volume V1250” value is 38 mL. The Appearance entry in data set [6] was “White to off-white powder with big, coarse and hard particles”. Also, in data set [4], the “Related Substances 2 W 40°C/75 % RH open” value was found to be 0.23%, the “Related Substances 2 W 60°C closed” value is 0.20%, the “Related Substances 4 w 40°C/75 % RH closed” value was found to be 0.24% and the “Related Substances 4 w 40°C/75 % RH open” value stood at 0.36%. Also, the “Initial Related Substances” value in data set [4] is reported as 0.20%. In data set [4] (closed bottle), the “Related Substances 4 w 60°C Closed bottle” value is on record as 0.31% and the “Related Substances 12 weeks 40°C/75 % RH closed bottle” value amounted to 0.25%. The “Related Substances 12 weeks 40°C/75 % RH open bottle” value in data set [4] (open bottle) was 0.46%.
